29 molecules from patent US20110053916A1 (Vertex Pharmaceuticals Incorporated, priority 2009, published 2011) can be followed below.

Assay [1] concerns the target T1, PknB (Mycobacterium tuberculosis, UniProt P9WI81).
T1 construct: made in house
Briefly: biochemical. Also on record: species or system M. tuberculosis. The note with it: 3 nM PknB, 6 uM GarA, 3 μM ATP, 30 min, competitive tight-binding fit, several symbols in a cell = repeat determinations; for Ki: read-out: Ki Values.

For assay [2], the system named is Mycobacterium tuberculosis H37Ra. In words: Mycobacterium tuberculosis growth inhibition assay (microtiter dilution, resazurin reduction). It counts as cell-based. The following applies: 7H9 broth, 9 days + 24 h resazurin, lowest concentration inhibiting resazurin reduction by >70%, several symbols in a cell = repeat determinations. The method in brief: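 M. tuberculosis H37Ra at ~1×10^6 cells/mL in 7H9 broth plus 10% ADC, exposed to 2-fold serial dilutions (7 or 11 steps) at 37 °C for 9 days. Resazurin then added, fluorescence (492/595 nm) read at baseline and after 24 h; MIC = lowest concentration inhibiting resazurin reduction >70% versus DMSO.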
On the technique in general: Alamar Blue is a resazurin reagent that responds to reducing activity.

T1 sequence (P9WI81 whole entry): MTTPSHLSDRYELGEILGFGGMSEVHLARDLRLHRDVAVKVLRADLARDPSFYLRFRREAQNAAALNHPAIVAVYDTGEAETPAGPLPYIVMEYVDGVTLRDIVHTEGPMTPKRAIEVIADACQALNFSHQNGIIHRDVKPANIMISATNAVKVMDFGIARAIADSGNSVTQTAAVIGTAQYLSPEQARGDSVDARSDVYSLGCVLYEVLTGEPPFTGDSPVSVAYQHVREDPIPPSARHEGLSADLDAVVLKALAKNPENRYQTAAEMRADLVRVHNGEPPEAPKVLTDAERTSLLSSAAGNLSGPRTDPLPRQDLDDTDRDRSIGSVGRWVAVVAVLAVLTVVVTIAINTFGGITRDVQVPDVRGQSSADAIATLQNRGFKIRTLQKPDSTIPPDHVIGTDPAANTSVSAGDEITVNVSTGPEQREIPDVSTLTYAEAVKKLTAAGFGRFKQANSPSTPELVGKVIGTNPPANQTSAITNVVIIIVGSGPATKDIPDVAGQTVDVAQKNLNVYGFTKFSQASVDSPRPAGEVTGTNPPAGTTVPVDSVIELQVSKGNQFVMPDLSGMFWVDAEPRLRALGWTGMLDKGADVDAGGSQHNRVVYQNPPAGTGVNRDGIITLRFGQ

Broadly, the Ki is a dissociation constant, usually derived from enzyme kinetics or from competition with a known ligand. As to `NS(=O)(=O)c1ccc(-c2ncc(Cl)c(Nc3cc(C4CC4)[nH]n3)n2)o1` [Compound 240, 5-(5-chloro-4-(5-cyclopropyl-1H-pyrazol-3-ylamino)pyrimidin-2-yl)furan-2-sulfonamide], in assay [1], the Ki lay within 10 to 50 nM. In assay [2], the MIC values result is “B++”.

Turning to `CC(C)(C)OC(=O)NCCNS(=O)(=O)c1ccc(-c2ncc(Cl)c(Nc3cc(C4CC4)[nH]n3)n2)s1` [Compound 78, tert-Butyl 2-(5-(5-chloro-4-(5-cyclopropyl-1H-pyrazol-3-ylamino)pyrimidin-2-yl)thiophene-2-sulfonamido)ethylcarbamate], the Ki in assay [1] lay within 100 to 500 nM. In addition, in assay [2], the MIC values result is reported as “A, B++, C, C”.

Regarding `O=S(=O)(NCCO)c1ccc(Nc2nccc(Nc3cc(C4CC4)n[nH]3)n2)cc1` [Compound 83, 4-[[4-[(5-cyclopropyl-2H-pyrazol-3-yl)amino]pyrimidin-2-yl]amino]-N-(2-hydroxyethyl)benzenesulfonamide], in assay [1], the “Ki Values” was “A**, A*”. In addition, the MIC values entry in assay [2] is “B+”.

For the molecule `CC(=O)c1cccc(-c2nccc(Nc3cc(C4CC4)[nH]n3)n2)c1` [Compound 317, 1-[3-[4-[(5-cyclopropyl-1H-pyrazol-3-yl)amino]pyrimidin-2-yl]phenyl]ethanone], in assay [1], the Ki fell in the range of 10 to 50 nM. Further, the MIC values result in assay [2] is listed as “B+”.

With `C#Cc1c(C)nc(-c2ccc(S(N)(=O)=O)s2)nc1Nc1cc(C2CC2)[nH]n1` [Compound 267, 5-(4-(3-cyclopropyl-1H-pyrazol-5-ylamino)-5-ethynyl-6-methylpyrimidin-2-yl)thiophene-2-sulfonamide], in assay [1], the Ki is 1 to 10 nM. Also, in assay [2], the MIC values result is on record as “A+, A”.

Regarding `CC(C)(C)NS(=O)(=O)c1ccc(-c2ccc(N)c(Nc3cc(C4CC4)n[nH]3)n2)s1` [Compound 273, 5-[5-amino-6-[(5-cyclopropyl-2H-pyrazol-3-yl)amino]-2-pyridyl]-N-tert-butyl-thiophene-2-sulfonamide], the Ki in assay [1] fell in the range of 10 to 50 nM. Further, the MIC values entry in assay [2] was “B+”.

In the case of `NS(=O)(=O)c1cccc(-c2ncc(O)c(Nc3cc(C4CC4)n[nH]3)n2)c1` [Compound 99, 3-(4-(3-cyclopropyl-1H-pyrazol-5-ylamino)-5-hydroxypyrimidin-2-yl)benzenesulfonamide], the inhibition constant Ki in assay [1] was 10 to 50 nM. Besides, in assay [2], the MIC values entry is given as “B+, B”.

Consider `O=S(=O)(NC1CC1)c1ccc(-c2ncc(Cl)c(Nc3cc(C4CC4)[nH]n3)n2)s1` [Compound 139, 5-[5-chloro-4-[(5-cyclopropyl-1H-pyrazol-3-yl)amino]-pyrimidin-2-yl]-N-cyclopropyl-thiophene-2-sulfonamide], for which, in assay [1], the Ki is 10 to 50 nM. Also, the MIC values entry in assay [2] was “B+, C”.

For the molecule `O=[N+]([O-])c1ccc(-c2ncc(Cl)c(Nc3cc(C4CC4)[nH]n3)n2)o1` [Compound 222, 5-chloro-N-(5-cyclopropyl-1H-pyrazol-3-yl)-2-(5-nitrofuran-2-yl)pyrimidin-4-amine], the Ki in assay [1] lay in the range of 1 to 10 nM. Also, the MIC values entry in assay [2] is recorded as “A+, A”.

For `NC(=O)c1cc(-c2nccc(Nc3cc(C4CC4)[nH]n3)n2)ccc1Cl` [Compound 51, 2-chloro-5-[4-[(5-cyclopropyl-1H-pyrazol-3-yl)amino]pyrimidin-2-yl]-benzamide], in assay [1], the Ki lay within 50 to 100 nM. Also, the MIC values result in assay [2] is reported as “B++”.

For `CNS(=O)(=O)c1ccc(-c2ncc(C)c(Nc3cc(C4CC4)[nH]n3)n2)s1` [Compound 33, 5-[4-[(5-cyclopropyl-1H-pyrazol-3-yl)amino]-5-methyl-pyrimidin-2-yl]-N-methyl-thiophene-2-sulfonamide], the Ki in assay [1] was in the range of 10 to 50 nM. Further, the MIC values entry in assay [2] is “B+”.

With `OCc1ccc(-c2ncc(F)c(Nc3cc(C4CC4)[nH]n3)n2)s1` [Compound 26, (5-(4-(5-cyclopropyl-1H-pyrazol-3-ylamino)-5-fluoropyrimidin-2-yl)thiophen-2-yl)methanol], the Ki in assay [1] lay within 10 to 50 nM. Besides, the MIC values entry in assay [2] is recorded as “B+”.

Take `N#CCc1ccc(-c2ncc(Cl)c(Nc3cc(C4CC4)[nH]n3)n2)cc1` [Compound 18, 2-(4-(5-chloro-4-(5-cyclopropyl-1H-pyrazol-3-ylamino)pyrimidin-2-yl)phenyl)acetonitrile]: the “Ki Values” in assay [1] was “A**, A*”. Besides, in assay [2], the MIC values entry was “B, B, C”.

Consider `C#Cc1cnc(Nc2ccc3[nH]ncc3c2)nc1Nc1cc(C2CC2)[nH]n1` [Compound 91, N^4-(5-cyclopropyl-1H-pyrazol-3-yl)-5-ethynyl-N^2-(1H-indazol-5-yl)pyrimidine-2,4-diamine], for which the Ki in assay [1] lay in the range of 10 to 50 nM. Further, in assay [2], the MIC values entry is recorded as “B+”.

Take `CS(=O)(=O)c1ccc(Nc2nccc(Nc3cc(C4CC4)[nH]n3)n2)cc1` [Compound 94, N′-(5-cyclopropyl-2H-pyrazol-3-yl)-N-(4-methylsulfonylphenyl)-pyrimidine-2,4-diamine]: in assay [1], the Ki was in the range of 1 to 10 nM. Also, the MIC values result in assay [2] was “B++, B+”.

As for `Cc1cnc(-c2ccc([C@H](C)O)s2)nc1Nc1cc(C2CC2)[nH]n1` [Compound 146, (S)-1-(5-(4-(5-cyclopropyl-1H-pyrazol-3-ylamino)-5-methylpyrimidin-2-yl)thiophen-2-yl)ethanol], the “Ki Values” in assay [1] is on record as “A*, A**”. Also, the MIC values entry in assay [2] is “B++”.

On to `O=S(=O)(c1ccc(-c2ncc(Cl)c(Nc3cc(C4CC4)[nH]n3)n2)s1)N1CCOCC1` [Compound 106, 5-chloro-N-(5-cyclopropyl-1H-pyrazol-3-yl)-2-(5-morpholinosulfonyl-2-thienyl)-pyrimidin-4-amine], for which the “Ki Values” in assay [1] is “A*, A”. In addition, the MIC values entry in assay [2] was “B++, C”.

Take `C#Cc1cnc(-c2ccc([C@@H](C)O)s2)nc1Nc1cc(C2CC2)n[nH]1` [Compound 212, (R)-1-(5-(4-(3-cyclopropyl-1H-pyrazol-5-ylamino)-5-ethynylpyrimidin-2-yl)thiophen-2-yl)ethanol]: the “Ki Values” in assay [1] is “A**, A**, A*”. Further, in assay [2], the MIC values entry is listed as “A, B++”.

As to `Oc1ccc(-c2ncc(Cl)c(Nc3cc(C4CC4)[nH]n3)n2)cc1` [Compound 126, 4-[5-chloro-4-[(5-cyclopropyl-1H-pyrazol-3-yl)amino]-pyrimidin-2-yl]phenol], the Ki in assay [1] was 10 to 50 nM. Besides, in assay [2], the MIC values result is recorded as “B++, B+”.

Take `CNc1cc(Nc2cc(C3CC3)n[nH]2)nc(-c2ccc(S(N)(=O)=O)s2)n1` [Compound 279, 5-[4-[(5-cyclopropyl-2H-pyrazol-3-yl)amino]-6-methylamino-pyrimidin-2-yl]thiophene-2-sulfonamide]: the inhibition constant (Ki) in assay [1] fell in the range of 1000 to 2000 nM. In addition, the MIC values result in assay [2] is on record as “B++”.

With `C#Cc1cnc(-c2ccc(C(C)C#N)s2)nc1Nc1cc(C2CC2)[nH]n1` (stereo not shown) [Compound 227, 2-[5-[4-[(5-cyclopropyl-1H-pyrazol-3-yl)amino]-5-ethynyl-pyrimidin-2-yl]-2-thienyl]propanenitrile], the Ki in assay [1] is 1 to 10 nM. Besides, in assay [2], the MIC values entry is listed as “B++”.

Take `CC(O)c1ccc(-c2ncc(F)c(Nc3cc(C4CC4)[nH]n3)n2)s1` (stereo in doubt) [Compound 147, (R)-1-(5-(4-(5-cyclopropyl-1H-pyrazol-3-ylamino)-5-fluoropyrimidin-2-yl)thiophen-2-yl)ethanol]: the Ki in assay [1] fell in the range of 10 to 50 nM. Besides, the MIC values result in assay [2] was “B++”.

In the case of `C#Cc1cnc(-c2ccc(C(C)(C)O)s2)nc1Nc1cc(C2CC2)[nH]n1` [Compound 180, 2-(5-(4-(5-Cyclopropyl-1H-pyrazol-3-ylamino)-5-ethynylpyrimidin-2-yl)thiophen-2-yl)propan-2-ol], the Ki in assay [1] was 10 to 50 nM. For the same molecule, the MIC values entry in assay [2] is given as “B++”.

Regarding `CC(C)(C)NS(=O)(=O)c1ccc(-c2nccc(Nc3cc(C4CC4)[nH]n3)n2)cn1` [Compound 300, 5-[4-[(5-cyclopropyl-1H-pyrazol-3-yl)amino]pyrimidin-2-yl]-N-tert-butyl-pyridine-2-sulfonamide], the Ki in assay [1] lay in the range of 50 to 100 nM. The MIC values entry in assay [2] was “B+”.

Consider `C#Cc1cnc(-c2ccc([C@H](O)C(C)C)s2)nc1Nc1cc(C2CC2)n[nH]1` [Compound 214, 1-[5-[4-[(5-cyclopropyl-2H-pyrazol-3-yl)amino]-5-ethynyl-pyrimidin-2-yl]-2-thienyl]-2-methyl-propan-1-ol], for which the “Ki Values” in assay [1] is recorded as “A**, A**, A*”. In assay [2], the MIC values result is given as “B++”.

`C#Cc1cnc(N2CCCC2C(=O)OC)nc1Nc1cc(C2CC2)n[nH]1` (stereo not shown) [Compound 200, methyl 1-[4-[(5-cyclopropyl-2H-pyrazol-3-yl)amino]-5-ethynyl-pyrimidin-2-yl]pyrrolidine-2-carboxylate]: in assay [1], the “Ki Values” is “B, D, D”. Further, the MIC values result in assay [2] was “B, C”.

Consider `NS(=O)(=O)c1ccc(-c2nc(Nc3cc(C4CC4)n[nH]3)cc(N3CCCC3)n2)s1` [Compound 284, 5-[4-[(5-cyclopropyl-2H-pyrazol-3-yl)amino]-6-pyrrolidin-1-yl-pyrimidin-2-yl]thiophene-2-sulfonamide], for which the Ki in assay [1] lay within 100 to 500 nM. Further, the MIC values result in assay [2] was “B++”.

As to `COC(=O)NCc1ccc(-c2ncc(Cl)c(Nc3cc(C4CC4)n[nH]3)n2)s1` [Compound 287, methyl [[5-[5-chloro-4-[(5-cyclopropyl-2H-pyrazol-3-yl)amino]-pyrimidin-2-yl]-2-thienyl]methylamino]formate], the Ki in assay [1] fell in the range of 10 to 50 nM. Also, the MIC values result in assay [2] is given as “B+”.

Turning to `CC(C)(C)c1cc(Nc2nc(-c3ccc(S(N)(=O)=O)s3)ncc2Cl)n[nH]1` [Compound 236, 5-(4-(5-tert-butyl-1H-pyrazol-3-ylamino)-5-chloropyrimidin-2-yl)thiophene-2-sulfonamide], the Ki in assay [1] lay in the range of 100 to 500 nM. Further, the MIC values result in assay [2] is recorded as “A+, A, A, A, A”.
